Experimental data from the supplement of paper PMC8671470.
± gives the standard deviation of the averaged measurements.

Columns and labels:
HL-60 [1] = assay: cell viability (% survival relative to DMSO control); higher = less cytotoxic; details: 72 h
Method in brief: (§1)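 In 384-well plates, the full library was rescreened in duplicate on HL-60 cells in RPMI 1640 with 10% FBS, at 1–10,000 nM in five tenfold concentrations, for 72 h at 37 °C, 5% CO2. Each run also held DMSO or 100 nM of one of three metabolic inhibitors. Viability was measured by CellTiter-Glo and normalised to DMSO wells and to wells with proteasome inhibitor, present at 10 μM. Any area under the curve comes from four-parameter log-logistic fitting with drc and PharmacoGx.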

HL-60 [2] = assay: area under dose-response curve (viability, 1 nM-10 uM) (fraction (0-1)); higher = more sensitive; details: 72 h
Method in brief: as §1

[3] = 0.001 µM, co-treatment: AZD3965 100 nM
[4] = 0.001 µM, co-treatment: DMSO vehicle
[5] = 0.001 µM, co-treatment: GSK2194069 100 nM
[6] = 0.001 µM, co-treatment: pictilisib 100 nM
[7] = 0.01 µM, co-treatment: AZD3965 100 nM
[8] = 0.01 µM, co-treatment: DMSO vehicle
[9] = 0.01 µM, co-treatment: GSK2194069 100 nM
[10] = 0.01 µM, co-treatment: pictilisib 100 nM
[11] = 0.1 µM, co-treatment: AZD3965 100 nM
[12] = 0.1 µM, co-treatment: DMSO vehicle
[13] = 0.1 µM, co-treatment: GSK2194069 100 nM
[14] = 0.1 µM, co-treatment: pictilisib 100 nM
[15] = 1 µM, co-treatment: AZD3965 100 nM
[16] = 1 µM, co-treatment: DMSO vehicle
[17] = 1 µM, co-treatment: GSK2194069 100 nM
[18] = 1 µM, co-treatment: pictilisib 100 nM
[19] = 10 µM, co-treatment: AZD3965 100 nM
[20] = 10 µM, co-treatment: DMSO vehicle
[21] = 10 µM, co-treatment: GSK2194069 100 nM
[22] = 10 µM, co-treatment: pictilisib 100 nM
[23] = co-treatment: GSK2194069 100 nM
[24] = co-treatment: pictilisib 100 nM

SMILES | cell viability (HL-60 [1]; [3]) | cell viability (HL-60 [1]; [4]) | cell viability (HL-60 [1]; [5]) | cell viability (HL-60 [1]; [6]) | cell viability (HL-60 [1]; [7]) | cell viability (HL-60 [1]; [8]) | cell viability (HL-60 [1]; [9]) | cell viability (HL-60 [1]; [10]) | cell viability (HL-60 [1]; [11]) | cell viability (HL-60 [1]; [12]) | cell viability (HL-60 [1]; [13]) | cell viability (HL-60 [1]; [14]) | cell viability (HL-60 [1]; [15]) | cell viability (HL-60 [1]; [16]) | cell viability (HL-60 [1]; [17]) | cell viability (HL-60 [1]; [18]) | cell viability (HL-60 [1]; [19]) | cell viability (HL-60 [1]; [20]) | cell viability (HL-60 [1]; [21]) | cell viability (HL-60 [1]; [22]) | area under dose-response curve (HL-60 [2]; co-treatment: AZD3965 100 nM) | area under dose-response curve (HL-60 [2]; co-treatment: DMSO vehicle) | area under dose-response curve (HL-60 [2]; [23]) | area under dose-response curve (HL-60 [2]; [24])
O=C1N[C@@H]2[C@@H](O)[C@@H](O)[C@H](O)[C@@H](CO)N2C1=O [Kifunensine] | 93.1 ± 5.7% | 96.82 ± 0.8% | 95.7 ± 6.9% | 85.7 ± 3.2% | 81.8 ± 28% | 99.24 ± 0.24% | 79.8 ± 27% | 112 ± 7.8% | 101 ± 2.2% | 103 ± 3.2% | 101 ± 1.8% | 95.7 ± 2.5% | 99.3 ± 1.2% | 101 ± 3.6% | 91.23 ± 0.73% | 104 ± 2.7% | 108 ± 4.8% | 108 ± 1.7% | 91.9 ± 9.2% | 111.3 ± 0.3% | < 0.0301 | < 0.0301 | < 0.0301 | < 0.0301
O[C@H]1[C@H](O)[C@@H](O)CN2CC[C@H](O)[C@H]12 [Castanospermine] | 97.9 ± 2.2% | 98 ± 6.5% | 77.1 ± 28% | 108 ± 6.9% | 97.5 ± 4.8% | 100.5 ± 0.15% | 91.1 ± 24% | 106 ± 12% | 104 ± 3.5% | 96.8 ± 3% | 103 ± 3.5% | 89.4 ± 14% | 101 ± 8% | 98.7 ± 4.9% | 94.2 ± 4.3% | 92.4 ± 2% | 101 ± 3.6% | 101 ± 1.6% | 99.09 ± 0.95% | 99.9 ± 2.1% | < 0.0301 | < 0.0301 | < 0.0301 | < 0.0301
NS(=O)(=O)c1ccc(NC(=O)Cc2ccccc2)cc1 [4-(2-Phenylacetamido)Benzenesulfonamide] | 97.2 ± 2.5% | 92.5 ± 3.3% | 104 ± 13% | 101 ± 1.3% | 100 ± 1.7% | 94.4 ± 3% | 99.5 ± 13% | 85.2 ± 6.6% | 99.29 ± 0.26% | 100 ± 3.6% | 99.14 ± 0.66% | 94 ± 7% | 101 ± 3.1% | 100 ± 2.9% | 99.4 ± 2.3% | 97.6 ± 1.9% | 99.6 ± 2.4% | 98.28 ± 0.14% | 103 ± 1.3% | 92.9 ± 7.5% | < 0.0301 | < 0.0301 | < 0.0301 | < 0.0301
